Experimental data from patent publication US11390604B2 (Hoffmann-La Roche Inc., priority 2019, dated 2022).
Where a name gives a salt, the structure may show the parent alone.

Test system: Acinetobacter baumannii ATCC 17961
Experiment: Antimicrobial susceptibility testing: 90% growth inhibitory concentration (IC90) determination
Type: cell-based
Settings: ATCC17961, Acinetobacter baumannii ATCC 17961, Iso-Sensitest broth, read-out: ATCC 17961 IC90
Outline: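 Growth was followed kinetically by OD600 at 20-min intervals for 16 h at 35±2 °C, with ~5×10^5 CFU/ml in Iso-Sensitest broth. Compounds were tested as twofold dilutions (e.g. 50–0.097 μM final). The concentration giving 90% inhibition of log-phase growth was reported.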

Structure (SMILES) | IC90 [nM]
Cn1c(-c2cn(C3CC3)nc2C(F)(F)F)cnc1C(=O)Nc1ccc(C(=O)N2CCN(C(=O)[C@H]3C[C@H](O)CN3)CC2)c(Cl)c1 [Example 313, N-(3-chloro-4-(4-((2R,4S)-4-hydroxypyrrolidine-2-carbonyl)piperazine-1-carbonyl)phenyl)-5-(1-cyclopropyl-3-(trifluoromethyl)-1H-pyrazol-4-yl)-1-methyl-1H-imidazole-2-carboxamide hydrochloride] | 386
C#CCn1cc(-c2cnc(C(=O)Nc3ccc(C(=O)N4CCN(C(=O)[C@H]5CCNC[C@H]5O)CC4)c(Cl)c3)n2C)c(C(F)(F)F)n1 [Example 40, N-(3-chloro-4-(4-((3S,4S)-3-hydroxypiperidine-4-carbonyl)piperazine-1-carbonyl)phenyl)-1-methyl-5-(1-(prop-2-yn-1-yl)-3-(trifluoromethyl)-1H-pyrazol-4-yl)-1H-imidazole-2-carboxamide hydrochloride] | 241
Cn1c(-c2cn(CC#N)nc2C(F)(F)F)cnc1C(=O)Nc1ccc(C(=O)N[C@H]2C[C@@H](N)C2)c(Cl)c1 [Example 94, N-[4-[(3-aminocyclobutyl)carbamoyl]-3-chlorophenyl]-5-[1-(cyanomethyl)-3-(trifluoromethyl)pyrazol-4-yl]-1-methylimidazole-2-carboxamide;2,2,2-trifluoroacetic acid] | 176
C#CCn1cc(-c2cnc(C(=O)Nc3ccc(C(=O)N4CCN(C(=O)N[C@H]5CC[C@H](N)C5)CC4)c(Cl)c3)n2C)c(C(F)(F)F)n1 [Example 83, N-[(1S,3S)-3-aminocyclopentyl]-4-[2-chloro-4-[[1-methyl-5-[1-prop-2-ynyl-3-(trifluoromethyl)pyrazol-4-yl]imidazole-2-carbonyl]amino]benzoyl]piperazine-1-carboxamide] | 288
C#CCn1cc(-c2cnc(C(=O)Nc3ccc(C(=O)NCCOCC(C)(C)N)c(CC)c3)n2C)c(C(F)(F)F)n1 [Example 222, N-[4-[2-(2-amino-2-methyl-propoxy)ethylcarbamoyl]-3-ethyl-phenyl]-1-methyl-5-[1-prop-2-ynyl-3-(trifluoromethyl)pyrazol-4-yl]imidazole-2-carboxamide; formic acid] | 250
Cn1c(-c2cn(C3CC3)nc2C(F)(F)F)cnc1C(=O)Nc1ccc(C(=O)N2CCN(C(=O)N3CCC(N)CC3)CC2)c(Cl)c1 [Example 362, N-(4-(4-(4-aminopiperidine-1-carbonyl)piperazine-1-carbonyl)-3-chlorophenyl)-5-(1-cyclopropyl-3-(trifluoromethyl)-1H-pyrazol-4-yl)-1-methyl-1H-imidazole-2-carboxamide formate] | 480
Cn1c(-c2cn(CC3CCC3)nc2C(F)(F)F)cnc1C(=O)Nc1ccc(C(=O)N[C@H]2[C@@H]3CN(C(=O)C4CCNCC4)C[C@@H]32)c(Cl)c1 [Example 174, N-(3-chloro-4-(((1R,5S,6s)-3-(piperidine-4-carbonyl)-3-azabicyclo[3.1.0]hexan-6-yl)carbamoyl)phenyl)-5-(1-(cyclobutylmethyl)-3-(trifluoromethyl)-1H-pyrazol-4-yl)-1-methyl-1H-imidazole-2-carboxamide formate] | 250
CCc1cc(NC(=O)c2ncc(-c3cn(Cc4cccnc4)nc3C(F)(F)F)n2C)ccc1C(=O)N1CCN(C(=O)C2CCNCC2)CC1 [Example 159, N-[3-ethyl-4-[4-(piperidine-4-carbonyl)piperazine-1-carbonyl]phenyl]-1-methyl-5-[1-(pyridin-3-ylmethyl)-3-(trifluoromethyl)pyrazol-4-yl]imidazole-2-carboxamide;formic acid] | 1160
C#CCn1cc(-c2cnc(C(=O)Nc3ccc(C(=O)N4CCN(C(=O)[C@H]5CCNC5)CC4)c(Cl)c3)n2C)c(C(F)(F)F)n1 [Example 37, N-[3-chloro-4-[4-[(3S)-pyrrolidine-3-carbonyl]piperazine-1-carbonyl]phenyl]-1-methyl-5-[1-prop-2-ynyl-3-(trifluoromethyl)pyrazol-4-yl]imidazole-2-carboxamide hydrochloride] | 233
Cn1c(-c2cn(C3CC3(F)F)nc2C(F)(F)F)cnc1C(=O)Nc1ccc(C(=O)NC2[C@H]3CN(C(=O)N4CC[C@@H](N)C4)C[C@@H]23)c(Cl)c1 (mixture of isomers) [Example 192, N-[4-[[cis-3-[(3R)-3-aminopyrrolidine-1-carbonyl]-3-azabicyclo[3.1.0]hexan-6-yl]carbamoyl]-3-chlorophenyl]-5-[1-(2,2-difluorocyclopropyl)-3-(trifluoromethyl)pyrazol-4-yl]-1-methylimidazole-2-carboxamide, formate salt] | 180
Cn1c(-c2cn(C3CC3)nc2C(F)(F)F)cnc1C(=O)Nc1ccc(C(=O)N2CCN(C(=O)[C@@H]3CCC[C@@H](N)C3)CC2)c(Cl)c1 [Example 287, N-(4-(4-((1R,3R)-3-aminocyclohexane-1-carbonyl)piperazine-1-carbonyl)-3-chlorophenyl)-5-(1-cyclopropyl-3-(trifluoromethyl)-1H-pyrazol-4-yl)-1-methyl-1H-imidazole-2-carboxamide hydrochloride] | 352
Cn1c(-c2cn(C3CC3)nc2C(F)(F)F)cnc1C(=O)Nc1ccc(C(=O)N2CCN(C(=O)CCCN)CC2)c(Cl)c1 [Example 302, N-(4-(4-(4-aminobutanoyl)piperazine-1-carbonyl)-3-chlorophenyl)-5-(1-cyclopropyl-3-(trifluoromethyl)-1H-pyrazol-4-yl)-1-methyl-1H-imidazole-2-carboxamide hydrochloride] | 370
Cn1c(-c2cn(CC(F)F)nc2C(F)(F)F)cnc1C(=O)Nc1ccc(C(=O)N2CCC23CN(C(=O)C2CCNCC2)C3)c(Cl)c1 [Example 363, N-(3-chloro-4-(6-(piperidine-4-carbonyl)-1,6-diazaspiro[3.3]heptane-1-carbonyl)phenyl)-5-(1-(2,2-difluoroethyl)-3-(trifluoromethyl)-1H-pyrazol-4-yl)-1-methyl-1H-imidazole-2-carboxamide formate] | 481
C=C(C)Cn1cc(-c2cnc(C(=O)Nc3ccc(C(=O)N[C@H]4C[C@@H](N)C4)c(Cl)c3)n2C)c(C(F)(F)F)n1 [Example 234, rac-N-(4-(((1s,3s)-3-aminocyclobutyl)carbamoyl)-3-chlorophenyl)-1-methyl-5-(1-(2-methylallyl)-3-(trifluoromethyl)-1H-pyrazol-4-yl)-1H-imidazole-2-carboxamide hydrochloride] | 268
Cn1c(-c2cn(C3CC3)nc2C(F)(F)F)cnc1C(=O)Nc1ccc(C(=O)N2CCN(C(=O)C3CNCC(O)C3)CC2)c(Cl)c1 (stereo not shown) [Example 286, N-[3-chloro-4-[4-(5-hydroxypiperidine-3-carbonyl)piperazine-1-carbonyl]phenyl]-5-[1-cyclopropyl-3-(trifluoromethyl)pyrazol-4-yl]-1-methylimidazole-2-carboxamide;hydrochloride] | 351
Cn1c(-c2cn(CC3CCC3)nc2C(F)(F)F)cnc1C(=O)Nc1ccc(C(=O)N2CCN(C(=O)N[C@H]3C[C@@H](N)C3)CC2)c(Cl)c1 [Example 260, rac-N-((1s,3s)-3-aminocyclobutyl)-4-(2-chloro-4-(5-(1-(cyclobutylmethyl)-3-(trifluoromethyl)-1H-pyrazol-4-yl)-1-methyl-1H-imidazole-2-carboxamido)benzoyl)piperazine-1-carboxamide hydrochloride] | 314
